Test results from paper PMC6471218, “Anti-Diabetic Activity of 2,3,6-Tribromo-4,5-Dihydroxybenzyl Derivatives from Symphyocladia latiuscula through PTP1B Downregulation and α-Glucosidase Inhibition” (Marine Drugs, 2019).
Like-named read-outs stand apart in the source and are kept apart here.

How the values were obtained:
[1] = target: T1, Human recombinant protein tyrosine phosphatase (PTP1B) (Homo sapiens, UniProt P18031); assay: PTP1B inhibitory assay with pNPP substrate; assay type: biochemical
T1 sequence (P18031 1-435): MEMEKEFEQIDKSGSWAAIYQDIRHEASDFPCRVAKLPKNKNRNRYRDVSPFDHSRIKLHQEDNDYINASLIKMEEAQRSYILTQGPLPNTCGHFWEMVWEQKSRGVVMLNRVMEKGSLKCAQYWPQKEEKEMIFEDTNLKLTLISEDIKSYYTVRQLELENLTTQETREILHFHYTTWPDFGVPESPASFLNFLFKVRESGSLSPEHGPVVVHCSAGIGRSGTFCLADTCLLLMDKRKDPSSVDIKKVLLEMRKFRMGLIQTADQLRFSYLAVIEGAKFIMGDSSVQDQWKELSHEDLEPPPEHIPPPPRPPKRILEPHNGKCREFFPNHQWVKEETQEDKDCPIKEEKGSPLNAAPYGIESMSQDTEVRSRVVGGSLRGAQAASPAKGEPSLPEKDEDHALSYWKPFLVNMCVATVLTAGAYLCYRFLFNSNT
Text: (§1) The initial step in evaluating anti-diabetic secondary metabolites from Symphyocladia latiuscula was the evaluation of PTP1B and α-glucosidase inhibition potentials of methanol extract and fractions obtained by MeOH extract partition with different solvents using pNPP and pNPG as substrates, respectively. Enzyme inhibition levels are expressed as mean IC50 values with standard deviation.
(§2) Human recombinant protein tyrosine phosphatase (PTP1B) was purchased from Biomol International LP (Plymouth Meeting, PA, USA). Fetal bovine serum (FBS), minimum essential medium (MEM), sodium pyruvate, penicillin-streptomycin, and nonessential amino acids were purchased from Gibco-BRL Life Technologies (Grand Island, NY, USA). The fluorescent D-glucose analogue and 2-NBDG was purchased from Life Technologies (Carlsbad, CA, USA). Human insulin was purchased from Eli Lilly (Fegersheim, France). All other chemicals and solvents used were of reagent grade and acquired from commercial sources.
The potential for MeOH extract, solvent-soluble fractions, and isolated compounds to inhibit PTP1B enzyme activity was evaluated using the pNPP substrate. Experimental conditions and laboratory procedures were similar to those published in our previous report.

yeast α-glucosidase [2] = target: T2, yeast α-glucosidase (Saccharomyces cerevisiae, UniProt P53341); assay: Kinetic study against α-glucosidase (Lineweaver–Burk and Dixon plots); assay type: biochemical; details: for α-Glucosidase Inhibition Type: determined from Lineweaver–Burk plots
T2 construct: purchased Sigma-Aldrich Co. (St. Louis, MO, USA)
T2 sequence (P53341 whole entry): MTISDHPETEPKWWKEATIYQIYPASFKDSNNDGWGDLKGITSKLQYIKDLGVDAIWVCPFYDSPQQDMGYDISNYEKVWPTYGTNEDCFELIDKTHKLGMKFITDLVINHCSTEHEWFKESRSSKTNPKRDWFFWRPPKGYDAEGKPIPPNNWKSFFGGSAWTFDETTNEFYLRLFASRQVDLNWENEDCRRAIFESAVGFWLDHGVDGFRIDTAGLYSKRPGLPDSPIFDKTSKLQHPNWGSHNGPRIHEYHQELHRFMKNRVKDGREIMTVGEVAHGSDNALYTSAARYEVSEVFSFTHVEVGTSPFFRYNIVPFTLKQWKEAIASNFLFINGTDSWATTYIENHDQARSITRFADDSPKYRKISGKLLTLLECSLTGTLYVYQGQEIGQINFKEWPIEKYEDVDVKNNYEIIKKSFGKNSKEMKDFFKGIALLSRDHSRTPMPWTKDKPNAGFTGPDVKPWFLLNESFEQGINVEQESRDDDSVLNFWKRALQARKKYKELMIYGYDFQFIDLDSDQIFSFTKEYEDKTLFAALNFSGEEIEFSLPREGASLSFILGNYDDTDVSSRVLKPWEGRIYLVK
Experimental: (§3) In competitive inhibition mode (Figure 2C), double reciprocal plots yielded a group of lines with the same y-intercept (constant Vmax) but different x-intercepts (varying Km values). […] The double reciprocal plots of α-glucosidase enzyme inhibition by 3 yielded a group of lines intersecting at a single point in the second quadrant.
(§4) The modes of enzyme inhibition were evaluated by monitoring the effects of different concentrations of the substrates (1, 2, or 4 mM pNPP for PTP1B and 1.25, 2.5, or 5 mM pNPG for α-glucosidase) on Dixon plots (single reciprocal plots). […] The enzymatic procedure consisted of the same aforementioned assay method. The inhibition constants (Ki) were determined by interpreting Dixon plots, where the value of the x-intercept indicated the value of −Ki.

HepG2 cells = assay: MTT cytotoxicity assay in HepG2 cells; assay type: cell-based, human; details: 25, 50 and 100 μM, 24 h
Experimental: Cytotoxicity of bromophenols on HepG2 cells was evaluated using a 3-(4,5-dimethylthiazol-2-yl)-2,5-diphenyl tetrazolium bromide (MTT) assay. […] So, considering enzyme inhibition activity and toxicity in HepG2 cells, we performed cell-based experiments at 5, 10, and 20 µM concentrations.
Figure 7 Effect of bromophenols 1–3 on cell viability in HepG2 cells. Cell viability was determined using the 3-(4,5-dimethylthiazol-2-yl)-2,5-diphenyl tetrazolium bromide (MTT) method. Cells were pretreated with the indicated concentrations (25, 50, and 100 μM) of test compounds for 24 h. Data shown represent mean ± standard deviation of triplicate experiments. ^a p < 0.05 indicates significant differences from the control group.
(§5) HepG2 (human hepatocarcinoma) cells obtained from the American Type Culture Collection (HB-8065; Manassas, VA, USA) were maintained in 10% FBS MEM at 37 °C in a humidified atmosphere with 5% CO2. Cytotoxicity was evaluated using the MTT assay. Following previously described methods, an insulin-resistant HepG2 cell model was established. All other experimental conditions and procedures were similar to those reported in our previous paper.

yeast α-glucosidase [3] = target: T2, yeast α-glucosidase; assay: biochemical; assay type: biochemical; details: for Enhancement of α-glucosidase inhibitory activity compared to 2: ratio of IC50 values
Text: as §1, §2
The α-glucosidase inhibition assay procedure, previously reported by Li et al., was followed to measure the release of […] at 405 nm using a microplate spectrophotometer (Molecular Devices).

α-glucosidase = target: α-glucosidase; parameters: method as in ref 24, 34 (Kurihara et al.); details: different enzyme and pNPG concentrations; 34 (Kurihara et al.); read-out: 50% α-glucosidase enzyme inhibition concentration (literature); cited from earlier work
[4] = test system: insulin-resistant HepG2 cells; assay: 2-NBDG glucose uptake assay in insulin-resistant HepG2 cells; assay type: cell-based, human; details: 24 h; for Insulin-stimulated glucose uptake compared with rosiglitazone 10 µM (112%): 20 µM
Experimental: Figure 8 Effect of bromophenols 1–3 on insulin-stimulated glucose uptake in insulin-resistant HepG2 cells. The glucose uptake assay was performed using the fluorescent D-glucose analogue 2-NBDG and 10^−6 mol/L insulin was to induce insulin resistance. Insulin-resistant HepG2 cells were treated with the indicated concentrations of test compounds or rosiglitazone for 24 h, and insulin-stimulated 2-NBDG uptake was measured. Values represent the mean ± standard deviation of triplicate experiments. ^a p < 0.01 indicates significant differences from the control group; ^b p < 0.05, ^c p < 0.01, and ^d p < 0.001 indicate significant differences from the insulin-resistant group.
as §5
The relative percent glucose uptake upon sample treatment in IR-HepG2 cells was evaluated by a flourimetric method using the fluorescent D-glucose analog 2-NBDG and measured on a fluorescence microplate reader (FL×800, Bio-Tek Instruments, Inc., Winooski, VT, USA) at 485 nm excitation and 528 nm emission wavelengths. Detailed experimental conditions and procedures are reported in our previous publication.

[5] = target: T1, Human recombinant protein tyrosine phosphatase (PTP1B); assay: Kinetic study against PTP1B (Lineweaver–Burk and Dixon plots); assay type: biochemical; details: for PTP1B Inhibition Type: determined from Lineweaver–Burk plots
Experimental: as §3, §4

PTP1B = test system: PTP1B; parameters: method as in ref 35 (Liu et al.); details: ref 35 (Liu et al.); read-out: PTP1B IC50 (literature); cited from earlier work
[6] = test system: PTP1B expression in insulin-resistant HepG2 cells; assay: PTP1B expression level in insulin-resistant HepG2 cells (western blot); assay type: cell-based, human; details: 24 h treatment, then 100 nM insulin 30 min
Experimental: Figure 9 Effects of bromophenol 1 (A), 2 (B), and 3 (C) on protein tyrosine phosphatase 1B (PTP1B) expression levels in insulin-resistant HepG2 cells. Western blotting was performed and protein band intensities were quantified by densitometric analysis. Upper panels display representative blots. Equal protein loading was ensured and normalized against β-actin levels. Values represent the mean ± standard deviation of three independent experiments; ^a p < 0.001 indicates significant differences from the control group; ^b p < 0.05, ^c p < 0.01, and ^d p < 0.001 indicate significant differences from the insulin-resistant group.
Insulin-resistant HepG2 cells were exposed to a range of concentrations of 1–3 or rosiglitazone (10 μM) in 24-well plates for 24 h followed by stimulation with 100 nM insulin diluted in SFMEM for 30 min. Cells were then washed twice with ice cold PBS, collected, and lysed with sample buffer. Protein was quantified by the modified Bradford protein assay kit using bovine serum albumin (BSA) as a standard, electrophoresed on sodium dodecyl sulfate-polyacrylamide gels (Bio-Rad, Hercules, CA, USA), and then transferred to polyvinylidene difluoride (PVDF) membranes (Immobilon-P; Millipore, Burlington, MA, USA) using the Pierce G2 Fast Blotter (Thermo Fisher Scientific Inc, USA) at 100 V for 60 min in a standard semi-dry system. […]

Row | SMILES | IC50 [1] [nM] | Ki (yeast α-glucosidase [2]) [nM] | α-Glucosidase Inhibition Type (yeast α-glucosidase [2]) | Cytotoxicity (cell viability, MTT) in HepG2 cells (HepG2 cells) | IC50 (yeast α-glucosidase [3]) [nM] | Enhancement of α-glucosidase inhibitory activity compared to 2 (yeast α-glucosidase [3]) [fold] | IC50 (α-glucosidase) [nM] | Insulin-stimulated glucose uptake compared with rosiglitazone 10 µM (112%) [4] | Ki [5] [nM] | PTP1B Inhibition Type [5] | IC50 (PTP1B) [nM] | IC50 ([1]; mean ± SD, n = 3, read-out: PTP1B IC50) [nM] | Ki (yeast α-glucosidase [2]; determined from Dixon plots, read-out: α-Glucosidase Ki) [nM] | Effect on PTP1B expression level [6] | IC50 (yeast α-glucosidase [3]; mean ± SD, n = 3, read-out: α-Glucosidase IC50) [nM] | Insulin-stimulated glucose uptake compared with rosiglitazone 10 µM ([4]; 10 µM) | Ki ([5]; determined from Dixon plots, read-out: PTP1B Ki) [nM] | Insulin-stimulated glucose uptake (2-NBDG) ([4]; 10 µM, relative to normal control) [%]
1 | OCc1c(Br)c(O)c(O)c(Br)c1Br [Compound 1, 2,3,6-Tribromo-4,5-dihydroxybenzyl alcohol] | 7740 ± 140 | 1920 | Noncompetitive | slightly toxic effect at 100 μM | 2630 ± 110 | 2.5 | 11000 | comparable | 1190 | Mixed-type |  |  |  |  |  |  |  | 
2 | COCc1c(Br)c(O)c(O)c(Br)c1Br [Compound 2, 2,3,6-Tribromo-4,5-dihydroxybenzyl methyl ether] | 8500 ± 450 | 5540 | Noncompetitive | did not show toxicity until they were used at a concentration of 100 μM | 7240 ± 20 |  |  | comparable | 2400 | Mixed-type | 3900 |  |  |  |  |  |  | 
3 | Oc1c(O)c(Br)c(COCc2c(Br)c(O)c(O)c(Br)c2Br)c(Br)c1Br [Compound 3, Bis-(2,3,6-tribromo-4,5-dihydroxybenzylmethyl ether)] |  |  | Mixed-type |  |  | 3.8 | 30 |  |  | Competitive |  | 5290 ± 80 | 210 | excellent ability to reduce PTP1B expression level | 1920 ± 20 | greater effect than rosiglitazone | 2250 | 
4 | CN(CCOc1ccc(CC2SC(=O)NC2=O)cc1)c1ccccn1 (stereo not drawn) [Rosiglitazone, rosiglitazone, reference compound] |  |  |  |  |  |  |  |  |  |  |  |  |  |  |  |  |  | 112
